The source of these data is PubChem BioAssay (NCI).

Test systems include 786-0 renal; ACHN renal; EKVX NSCLC; MALME-3M melanoma; SK-MEL-2 melanoma; SK-OV-3 ovarian; SN12C renal; SW-620 colon; TK-10 renal; UACC-62 melanoma.
What all share (test): NCI tumour cell line growth inhibition, 48 h

Molecules are shown by their SMILES.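 Test compounds were applied to cells in 96-well plates for 48 hours at 5 doses. At the GI50, growth is halved. TGI is the concentration that stops growth completely.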 Bounds are passed on as bounds.

For `CCn1c(-c2cc3ccccc3cc2OC(=O)c2ccccc2)n[nH]c1=S`, the GI50 in the experiment with 786-0 renal is > 50 µM; in the experiment on ACHN renal, > 50 µM; with EKVX NSCLC, 10.7 µM; in the experiment on MALME-3M melanoma, > 50 µM; in the experiment with SK-MEL-2 melanoma, 25.5 µM; in the experiment with SK-OV-3 ovarian it was > 50 µM. The GI50 with SN12C renal is 35.9 µM; in the experiment with SW-620 colon, > 50 µM; in the experiment with TK-10 renal, > 50 µM; in the experiment on UACC-62 melanoma, 28.8 µM. Moreover, the TGI in the experiment with 786-0 renal, in the experiment on ACHN renal, in the experiment on EKVX NSCLC, in the experiment on MALME-3M melanoma, in the experiment on SK-MEL-2 melanoma and in the experiment on SK-OV-3 ovarian was > 50 µM each time. The TGI in the experiment with SN12C renal, in the experiment on SW-620 colon, with TK-10 renal and in the experiment on UACC-62 melanoma was > 50 µM in each case.
Take `Cc1cc(I)cc(CN(C)CCCCN2CCCC2)c1O`: the GI50 was 15.3 µM with 786-0 renal; 36.8 µM in the experiment on ACHN renal; 34.8 µM in the experiment on EKVX NSCLC; 19.7 µM in the experiment with MALME-3M melanoma; 18.2 µM in the experiment with SK-MEL-2 melanoma; 21.6 µM in the experiment with SK-OV-3 ovarian. Further, the GI50 in the experiment on SN12C renal is 52.2 µM; in the experiment on SW-620 colon, 17.2 µM; with TK-10 renal it was 20.8 µM; with UACC-62 melanoma, 4.19 µM. Also, the TGI was 31.4 µM with 786-0 renal; > 100 µM in the experiment with ACHN renal; > 100 µM in the experiment on EKVX NSCLC; 36.1 µM in the experiment on MALME-3M melanoma; 34.8 µM with SK-MEL-2 melanoma; 67.8 µM in the experiment on SK-OV-3 ovarian. Moreover, the TGI is > 100 µM in the experiment with SN12C renal, 39.6 µM in the experiment with SW-620 colon, 50.7 µM in the experiment with TK-10 renal and 15.7 µM in the experiment with UACC-62 melanoma.
With `O=C1CCC(c2ccccc2)(c2ccccc2)CC1`, the TGI with 786-0 renal, with ACHN renal, in the experiment on EKVX NSCLC, in the experiment on MALME-3M melanoma, in the experiment on SK-MEL-2 melanoma and in the experiment on SK-OV-3 ovarian was > 100 µM throughout. The TGI in the experiment with SN12C renal, in the experiment on SW-620 colon, with TK-10 renal and in the experiment with UACC-62 melanoma was > 100 µM each time.
In the case of `C/C(=N\N=C(N)N)c1sc(-c2nc(C)c(/C(C)=N/N=C(N)N)s2)nc1C`, the TGI in the experiment with 786-0 renal was > 68.5 µM; in the experiment with ACHN renal it was > 100 µM; in the experiment on EKVX NSCLC, > 100 µM; with MALME-3M melanoma, > 100 µM; in the experiment on SK-MEL-2 melanoma it was > 100 µM; in the experiment with SK-OV-3 ovarian it was > 100 µM. For the same molecule, the TGI with SN12C renal, in the experiment on SW-620 colon, with TK-10 renal and in the experiment on UACC-62 melanoma was > 100 µM throughout.
`COc1cc(C=NCC(=O)CSC(c2ccccc2)c2ccccc2)cc(OC)c1OC`: the GI50 in the experiment on 786-0 renal was 24.6 µM; in the experiment on ACHN renal, 26.4 µM; in the experiment on EKVX NSCLC, 27.8 µM; with MALME-3M melanoma, 16.8 µM; in the experiment on SK-MEL-2 melanoma it was 19.6 µM; in the experiment on SK-OV-3 ovarian it was 23.3 µM. Further, the GI50 in the experiment with SN12C renal was 25.8 µM; in the experiment on SW-620 colon, 32.7 µM; in the experiment with TK-10 renal it was 14.5 µM; with UACC-62 melanoma, 19.2 µM. Moreover, the TGI with 786-0 renal is > 100 µM; with ACHN renal it was > 100 µM; in the experiment on EKVX NSCLC, > 100 µM; with MALME-3M melanoma it was 61.7 µM; in the experiment with SK-MEL-2 melanoma, 50 µM; in the experiment with SK-OV-3 ovarian, 76 µM. The TGI is > 100 µM with SN12C renal, > 100 µM with SW-620 colon, 79.1 µM in the experiment with TK-10 renal and > 100 µM with UACC-62 melanoma.
With `CCn1cc(C2NC(=O)c3cc(F)ccc3N2)c2cccc(Cl)c21` (stereo not given), the GI50 with 786-0 renal is 0.618 µM; in the experiment on ACHN renal, 0.606 µM; with EKVX NSCLC, 0.461 µM; with MALME-3M melanoma, 2.55 µM; in the experiment on SK-MEL-2 melanoma, 0.887 µM; in the experiment with SK-OV-3 ovarian it was 0.706 µM. Also, the GI50 in the experiment on SN12C renal was 0.706 µM; in the experiment on SW-620 colon, 0.193 µM; in the experiment with TK-10 renal, > 100 µM; in the experiment on UACC-62 melanoma, 0.0843 µM. For the same molecule, the TGI is > 50.6 µM with 786-0 renal; > 100 µM in the experiment with ACHN renal; > 100 µM in the experiment on EKVX NSCLC; > 100 µM with MALME-3M melanoma; > 100 µM in the experiment on SK-MEL-2 melanoma; > 100 µM with SK-OV-3 ovarian. Also, the TGI with SN12C renal is > 100 µM; with SW-620 colon, > 100 µM; in the experiment with TK-10 renal, > 100 µM; in the experiment with UACC-62 melanoma it was > 61.9 µM.
On to `N#CC(/C(=N\NC(N)=S)C(=O)NC1C2CC3CC(C2)CC1C3)c1ccc(Cl)cc1` (stereo not given), for which the TGI in the experiment with 786-0 renal, in the experiment on ACHN renal, in the experiment with EKVX NSCLC, with MALME-3M melanoma, with SK-MEL-2 melanoma and in the experiment on SK-OV-3 ovarian was > 100 µM in each case. Moreover, the TGI in the experiment on SN12C renal, with SW-620 colon, in the experiment with TK-10 renal and in the experiment with UACC-62 melanoma was > 100 µM each time.
In the case of `COCCOC(=O)CCn1cc(F)c(=O)[nH]c1=O`, the GI50 in the experiment with 786-0 renal was 8.12 µg/mL; with ACHN renal, 8.67 µg/mL; in the experiment on EKVX NSCLC, 57.8 µg/mL; with MALME-3M melanoma, > 150 µg/mL; with SK-MEL-2 melanoma, > 150 µg/mL; in the experiment with SK-OV-3 ovarian, 37.1 µg/mL. Besides, the GI50 with SN12C renal was 7.8 µg/mL; with SW-620 colon, 26.9 µg/mL; with TK-10 renal, 6.77 µg/mL; with UACC-62 melanoma, 11 µg/mL. The TGI in the experiment with 786-0 renal, in the experiment on ACHN renal, with EKVX NSCLC, in the experiment with MALME-3M melanoma, in the experiment with SK-MEL-2 melanoma and with SK-OV-3 ovarian was > 150 µg/mL each time. The TGI with SN12C renal, in the experiment with SW-620 colon, in the experiment on TK-10 renal and in the experiment with UACC-62 melanoma was > 150 µg/mL in each case.
Take `Cc1cc(Br)cc(C)c1NC(=O)C(=O)C(C(=O)c1ccc(Cl)c(Cl)c1)C1OC(=O)c2ccccc21` (stereo not given): the TGI in the experiment with 786-0 renal, with ACHN renal, with EKVX NSCLC, in the experiment with MALME-3M melanoma, in the experiment on SK-MEL-2 melanoma and in the experiment with SK-OV-3 ovarian was > 100 µM throughout. Besides, the TGI in the experiment on SN12C renal, in the experiment on SW-620 colon, with TK-10 renal and in the experiment with UACC-62 melanoma was > 100 µM in each case.
